Measurements published in publication PMC8386742, “Discovery of N-aryl sulphonamide-quinazoline derivatives as anti-gastric cancer agents in vitro and in vivo via activating the Hippo signalling pathway” (Journal of Enzyme Inhibition and Medicinal Chemistry, 2021).
Like-named read-outs stand apart in the source and are kept apart here.

How the values were obtained:
MGC-803 cells [1] = settings: 48 h, cited from earlier work
HCT-116 cells = test: MTT antiproliferative assay, HCT-116 cells; format: cell-based, human; settings: exposure for 48 h
Method: (§1) The in vitro antiproliferative activities of new target compounds 6a–6g, 9a–9i, 10a–10j, 11a–11j, and 14a–14d were evaluated against four human cancer cell lines (MGC-803, PC-3, HCT-116, and MCF-7) using MTT assay and 5-FU as a positive drug. The following Tables 1–[4] depicted the results of in vitro antiproliferative activity.
(§2) Cell lines used were cultured in humidified incubator in a humidified atmosphere of 5% CO2 and 95% air. The RPMI-1640 medium was supplemented with 10% foetal bovine serum, penicillin (100 U/ml) and streptomycin (0.1 mg/ml).
(§3) Cell lines were seeded into 96-well plates and incubated for 24 h. Then cells were treated with different concentrations of compounds. And after another 48 h, MTT reagent (20 μL per well) was added to each well and then incubated at 37 °C for 4 h. After the suspension was discarded, formazan was then dissolved with DMSO. Absorbencies of formazan solution were measured at 490 nm. The IC50 values of tested compounds were calculated by SPSS version 17.0.

PC-3 cells = test: MTT antiproliferative assay, PC-3 cells; format: cell-based, human
Method: as §1, §2, §3

MCF-7 cells = test: MTT antiproliferative assay, MCF-7 cells; format: cell-based, human; settings: exposure for 48 h
Method: as §1, §2, §3

SGC-7901 cells = test: MTT antiproliferative assay, SGC-7901 gastric cancer cells; format: cell-based; settings: exposure for 48 h
Method: (§4) Furthermore, MGC-803 cells were more sensitive to the compounds than HCT-116, PC-3 cells MCF-7 cells. Moreover, we chose two other common gastric cancer cell lines (HGC-27 and SGC-7901) and another two normal cells GES-1 and HUEVC cells to examine for the inhibitory activity of compound 9i.
as §2, §3

HGC-27 cells = test: MTT antiproliferative assay, HGC-27 gastric cancer cells; format: cell-based; settings: MTT, exposure for 48 h
Method: as §4, §2, §3

GES-1 cells = test: MTT antiproliferative assay, GES-1 normal gastric epithelial cells; format: cell-based; settings: MTT, exposure for 48 h, non-cancer cell line
Description: as §4
Since compound 9i presented high potency against cancer cells and MGC-803 cells was more sensitive to compound 9i, compound 9i, MGC-803, another two gastric cancer cells SGC-7901, HGC-27, and GES-1(normal gastric epithelial cells) were used for further detection. As shown in Figures 3(A,B), compound 9i inhibited three gastric cancer cell lines in the dose and time-dependent manners. The inhibition ratios of compound 9i against three gastric cancer cells were all above 50% after 48 h in the high dosage group. Moreover, MGC-803 and SGC-7901 cell lines were more sensitive and compound 9i inhibited over 65% cell viability with high dose treatment for 48 h.
as §2, §3

HUEVC cells = test: MTT antiproliferative assay, HUEVC normal cells; format: cell-based; settings: exposure for 48 h, non-cancer cell line
Method: as §4, §2, §3

MGC-803 cells [2] = test: MTT antiproliferative assay, MGC-803 cells; format: cell-based, human; settings: Homo sapiens, MGC-803, 48 h, exposure for 48 h
Method: as §1, §2, §3

[3] = Homo sapiens, PC-3, exposure for 48 h

Row | Compound | IC50 (MGC-803 cells [2]) | IC50 (HCT-116 cells; Homo sapiens, HCT-116, 48 h) | IC50 (PC-3 cells; [3]) | IC50 (MCF-7 cells; Homo sapiens, MCF7, 48 h) | melting point | also measured
1 | COc1ccc(CN(C(=O)CSc2nc3ccccc3[nH]2)c2cc(OC)c(OC)c(OC)c2)cc1 [Compound 1] | – | – | – | – | – | IC50 (MGC-803 cells [1]; previously reported compound 1 ref 31): 1.23 µM
2 | COc1cc(N(Cc2nc3ccccc3[nH]2)S(=O)(=O)c2ccc(C)cc2)cc(OC)c1OC [Compound 2] | – | – | – | – | – | IC50 (MGC-803 cells [1]; previously reported compound 2 ref 32): 1.02 µM
3 | O=c1[nH]cc(F)c(=O)[nH]1 [Compound 5-Fu, reference compound] | – | – | – | – | – | IC50 (HCT-116 cells): 14.4 ± 1.73 µM; IC50 (PC-3 cells; exposure for 48 h): 17.1 ± 1.42 µM; IC50 (MCF-7 cells): 12.1 ± 1.28 µM; IC50 (SGC-7901 cells): 3.88 µM; IC50 (HGC-27 cells): 4.94 µM; IC50 (GES-1 cells): 10.2 µM; IC50 (HUEVC cells): 18.5 µM
4 | COc1ccc(CN(c2cc(OC)c(OC)c(OC)c2)S(=O)(=O)c2cccnc2)cc1 [Compound 6g, N-(4-methoxybenzyl)-N-(3,4,5-trimethoxyphenyl) pyridine-3-sulphonamide] | 38.2 ± 1.55 µM | > 40 µM | 16.9 ± 1.58 µM | > 40 µM | 162 to 163 °C | –
5 | COc1ccc(S(=O)(=O)N(Cc2nc(C)c3ccccc3n2)c2cc(OC)c(OC)c(OC)c2)cc1OC [Compound 10h, 3,4-Dimethoxy-N-((4-methylquinazolin-2-yl)methyl)-N-(3,4,5-trimethoxyphenyl)benzene-sulfonamide] | 14.2 ± 1.03 µM | 22.9 ± 1.34 µM | 36.6 ± 0.34 µM | 18.5 ± 0.81 µM | 129 to 130 °C | –
6 | COc1cc(N(Cc2nc(C)c3ccccc3n2)C(=O)c2ccc(C(C)(C)C)cc2)cc(OC)c1OC [Compound 11g, 4-(Tert-butyl)-N-((4-methylquinazolin-2-yl)methyl)-N-(3,4,5-trimethoxyphenyl) benzamide] | > 40 µM | > 40 µM | > 40 µM | > 40 µM | 117 to 118 °C | –
7 | COc1ccc(S(=O)(=O)N(Cc2cccnc2)c2cc(OC)c(OC)c(OC)c2)cc1 [Compound 9f, 4-Methoxy-N-(pyridin-3-ylmethyl)-N-(3,4,5-trimethoxyphenyl) benzene-sulphonamide] | 1.31 ± 0.08 µM | 6.92 ± 0.79 µM | 11.3 ± 1.11 µM | 6.31 ± 1.11 µM | 158 to 159 °C | –
8 | COc1ccc(CN(c2cc(OC)c(OC)c(OC)c2)S(=O)(=O)c2ccc(Cl)cc2)cc1 [Compound 6b, 4-Chloro-N-(4-methoxybenzyl)-N-(3,4,5-trimethoxyphenyl) benzene-sulphonamide] | > 40 µM | > 40 µM | > 40 µM | > 40 µM | 166 to 167 °C | –

Now from value to compound, other results behind:

Row | IC50 (MGC-803 cells [2]) | IC50 (HCT-116 cells; Homo sapiens, HCT-116, 48 h) | IC50 (PC-3 cells; [3]) | IC50 (MCF-7 cells; Homo sapiens, MCF7, 48 h) | melting point | Compound | also measured
9 | 6.62 ± 0.82 µM | 16.7 ± 1.03 µM | 18.8 ± 0.31 µM | > 40 µM | 156 to 157 °C | COc1ccc(CN(c2cc(OC)c(OC)c(OC)c2)S(=O)(=O)c2ccc(F)cc2)cc1 [Compound 6a, 4-Fluoro-N-(4-methoxybenzyl)-N-(3,4,5-trimethoxyphenyl) benzene-sulphonamide] | –
10 | 7.92 ± 2.26 µM | 8.6 ± 2.85 µM | 10.2 ± 0.52 µM | 22.9 ± 1.82 µM | 136 to 137 °C | COc1ccc(S(=O)(=O)N(Cc2ccc(OC)c(OC)c2)c2cc(OC)c(OC)c(OC)c2)cc1 [Compound 9e, N-(3,4-dimethoxybenzyl)-4-methoxy-N-(3,4,5-trimethoxyphenyl) benzene-sulphonamide] | –
11 | > 50 µM | > 50 µM | > 50 µM | > 50 µM | 154 to 155 °C | COc1cc(N(Cc2nc(C)c3ccccc3n2)S(=O)(=O)c2c(C)cc(C)cc2C)cc(OC)c1OC [Compound 10f, 2,4,6-Trimethyl-N-((4-methylquinazolin-2-yl)methyl)-N-(3,4,5-trimethoxyphenyl) benzene-sulfonamide] | –
12 | 42.2 ± 2.44 µM | > 50 µM | 45.7 ± 2.88 µM | > 50 µM | 129 to 130 °C | COc1ccc(S(=O)(=O)N(Cc2nc(C)c3ccccc3n2)c2ccc(C)cc2)cc1 [Compound 14d, 4-Methoxy-N-((4-methylquinazolin-2-yl)methyl)-N-(p-tolyl)benzene-sulphonamide] | –
13 | 2.86 ± 1.08 µM | 3.48 ± 1.22 µM | 4.01 ± 1.67 µM | 7.68 ± 1.82 µM | 179 to 180 °C | COc1ccc(CN(c2cc(OC)c(OC)c(OC)c2)S(=O)(=O)c2ccc(OC)cc2)cc1 [Compound 6e, 4-Methoxy-N-(4-methoxybenzyl)-N-(3,4,5-trimethoxyphenyl) benzene-sulphonamide] | –
